Test results from ChEMBL document CHEMBL5365534, “Discovery of a Novel Ketohexokinase Inhibitor with Improved Drug Distribution in Target Tissue for the Treatment of Fructose Metabolic Disease” (J Med Chem, 2023).

What was measured:
[1] = Elimination half life in Sprague-Dawley rat at 10 mg/kg, iv administered as single dose measured upto 24 hrs by LC-MS/MS analysis; assay type: ADME, organism-based; details: in vivo, read-out: beta t1/2 (converted)
in vitro [2] = details: rat, plasma
HepG2 = test: cells; details: Homo sapiens, HepG2, 3 h
[3] = Cmax in Sprague-Dawley rat at 10 mg/kg, po administered as single dose measured upto 24 hrs by LC-MS/MS analysis; assay type: ADME, organism-based; set-up: time < 24 hrs, dose 10 mg/kg, route po; details: in vivo
[4] = AUC (0 to infinity) in Sprague-Dawley rat at 10 mg/kg, po administered as single dose measured upto 24 hrs by LC-MS/MS analysis; assay type: ADME, organism-based; set-up: dose 10 mg/kg, time < 24 hrs, route po; details: in vivo
in vitro [5] = details: dog, hepatocytes
[6] = Drug metabolism in mouse hepatocytes assessed as oxidation/hydrogenation/decarboxylation metabolite at 10 uM measured upto 240 mins by LC-MS/MS analysis; assay type: ADME, cell-based, Hepatocyte; details: 4 h
in vivo [7] = details: Sprague-Dawley, rat, spleen, po, 10 mg/kg
in vitro [8] = details: human, plasma
[9] = Oral bioavailability in Beagle dog at 5 mg/kg administered as single dose measured upto 24 hrs by LC-MS/MS analysis; assay type: ADME, organism-based, Canis lupus familiaris; details: in vivo
[10] = Cmax in Beagle dog at 5 mg/kg, po administered as single dose measured upto 24 hrs by LC-MS/MS analysis; assay type: ADME, organism-based, Canis lupus familiaris; set-up: time < 24 hrs, dose 5 mg/kg, route po; details: in vivo
[11] = Drug metabolism in rat hepatocytes assessed as oxidation/hydrogenation/decarboxylation metabolite at 10 uM measured upto 240 mins by LC-MS/MS analysis; assay type: ADME, cell-based, Hepatocyte; details: 4 h
[12] = Tmax in Sprague-Dawley rat at 10 mg/kg, po administered as single dose measured upto 24 hrs by LC-MS/MS analysis; assay type: ADME, organism-based; details: in vivo
Ketohexokinase = target: T1, Ketohexokinase (Homo sapiens, UniProt P50053)
T1 sequence (P50053 whole entry): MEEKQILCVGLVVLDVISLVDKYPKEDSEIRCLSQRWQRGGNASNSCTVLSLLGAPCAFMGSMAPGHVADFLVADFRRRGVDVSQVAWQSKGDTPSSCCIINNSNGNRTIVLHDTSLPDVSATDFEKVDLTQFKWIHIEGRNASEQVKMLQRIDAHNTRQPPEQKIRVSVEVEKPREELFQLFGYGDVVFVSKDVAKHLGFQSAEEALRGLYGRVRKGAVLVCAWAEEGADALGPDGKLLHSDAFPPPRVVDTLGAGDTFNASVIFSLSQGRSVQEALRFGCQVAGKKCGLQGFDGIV

[13] = Drug metabolism in monkey hepatocytes assessed as oxidation/hydrogenation/decarboxylation metabolite at 10 uM measured upto 240 mins by LC-MS/MS analysis; assay type: ADME, cell-based, Macaca mulatta, Hepatocyte; details: rhesus monkey, 4 h
[14] = Metabolic stability in monkey hepatocyte assessed as parent compound remaining at 10 uM measured after 4 hrs by LC-MS/MS analysis; assay type: ADME, cell-based, Macaca mulatta; details: rhesus monkey, hepatocytes, read-out: Stability
[15] = target: Sodium channel protein type 5 subunit alpha (Homo sapiens, UniProt Q14524)
[16] = Metabolic stability in mouse hepatocyte assessed as parent compound remaining at 10 uM measured after 4 hrs by LC-MS/MS analysis; assay type: ADME, cell-based; details: hepatocytes, read-out: Stability
in vitro [17] = details: human, liver microsomes
[18] = Tmax in Beagle dog at 5 mg/kg, po administered as single dose measured upto 24 hrs by LC-MS/MS analysis; assay type: ADME, organism-based, Canis lupus familiaris; details: in vivo
Cytochrome P450 1A2 = target: T2, Cytochrome P450 1A2 (Homo sapiens, UniProt P05177); test: Time dependent inhibition of CYP1A2 in human liver microsomes at 10 uM preincubated for 30 mins followed by substrate addition and measured after 15 mins in presence of NADPH by LC-MS/MS analysis; assay type: ADME, Microsome
T2 sequence (P05177 whole entry): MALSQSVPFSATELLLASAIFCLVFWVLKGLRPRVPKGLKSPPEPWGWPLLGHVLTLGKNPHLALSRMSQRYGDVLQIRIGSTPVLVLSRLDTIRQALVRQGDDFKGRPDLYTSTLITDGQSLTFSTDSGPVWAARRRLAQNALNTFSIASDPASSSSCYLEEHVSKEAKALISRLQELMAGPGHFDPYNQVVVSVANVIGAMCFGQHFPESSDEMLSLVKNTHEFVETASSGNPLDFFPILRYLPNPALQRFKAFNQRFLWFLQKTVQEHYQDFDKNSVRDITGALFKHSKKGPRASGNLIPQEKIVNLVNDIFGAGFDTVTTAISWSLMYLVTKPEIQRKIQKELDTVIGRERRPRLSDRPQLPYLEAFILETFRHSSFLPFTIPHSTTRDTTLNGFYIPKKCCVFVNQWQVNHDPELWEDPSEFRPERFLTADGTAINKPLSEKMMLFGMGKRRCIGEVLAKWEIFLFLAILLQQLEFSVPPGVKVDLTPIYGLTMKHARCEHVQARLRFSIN

in vivo [19] = details: Sprague-Dawley, rat, heart, po, 10 mg/kg
[20] = Drug metabolism in human hepatocytes assessed as oxidation/hydrogenation/decarboxylation metabolite at 10 uM measured upto 240 mins by LC-MS/MS analysis; assay type: ADME, cell-based, Hepatocyte; details: 4 h
[21] = Oral bioavailability in Sprague-Dawley rat at 10 mg/kg administered as single dose measured upto 24 hrs by LC-MS/MS analysis; assay type: ADME, organism-based; details: in vivo
in vivo [22] = details: Sprague-Dawley, rat, kidney/plasma, po, 10 mg/kg
[23] = MRT (0 to t) in Sprague-Dawley rat at 10 mg/kg, po administered as single dose measured upto 24 hrs by LC-MS/MS analysis; assay type: ADME, organism-based; details: in vivo
in vitro [24] = details: human, hepatocytes
in vitro [25] = details: rhesus monkey, hepatocytes
Cytochrome P450 2C19 = Cytochrome P450 2C19 (Homo sapiens, UniProt P33261); test: Time dependent inhibition of CYP2C19 in human liver microsomes at 10 uM preincubated for 30 mins followed by substrate addition and measured after 15 mins in presence of NADPH by LC-MS/MS analysis; assay type: ADME, Microsome
[26] = Clearance in Sprague-Dawley rat at 10 mg/kg, iv administered as single dose measured upto 24 hrs by LC-MS/MS analysis; assay type: ADME, organism-based; details: in vivo
in vitro [27] = details: human, Caco-2
[28] = MRT (0 to t) in Beagle dog at 1 mg/kg, iv administered as single dose measured upto 24 hrs by LC-MS/MS analysis; assay type: ADME, organism-based, Canis lupus familiaris; details: in vivo
in vitro [29] = details: human, primary hepatocytes
[30] = Elimination half life in Sprague-Dawley rat at 10 mg/kg, po administered as single dose measured upto 24 hrs by LC-MS/MS analysis; assay type: ADME, organism-based; details: in vivo, read-out: beta t1/2 (converted)

Sodium channel protein type 5 subunit alpha, sequence (Q14524 whole entry): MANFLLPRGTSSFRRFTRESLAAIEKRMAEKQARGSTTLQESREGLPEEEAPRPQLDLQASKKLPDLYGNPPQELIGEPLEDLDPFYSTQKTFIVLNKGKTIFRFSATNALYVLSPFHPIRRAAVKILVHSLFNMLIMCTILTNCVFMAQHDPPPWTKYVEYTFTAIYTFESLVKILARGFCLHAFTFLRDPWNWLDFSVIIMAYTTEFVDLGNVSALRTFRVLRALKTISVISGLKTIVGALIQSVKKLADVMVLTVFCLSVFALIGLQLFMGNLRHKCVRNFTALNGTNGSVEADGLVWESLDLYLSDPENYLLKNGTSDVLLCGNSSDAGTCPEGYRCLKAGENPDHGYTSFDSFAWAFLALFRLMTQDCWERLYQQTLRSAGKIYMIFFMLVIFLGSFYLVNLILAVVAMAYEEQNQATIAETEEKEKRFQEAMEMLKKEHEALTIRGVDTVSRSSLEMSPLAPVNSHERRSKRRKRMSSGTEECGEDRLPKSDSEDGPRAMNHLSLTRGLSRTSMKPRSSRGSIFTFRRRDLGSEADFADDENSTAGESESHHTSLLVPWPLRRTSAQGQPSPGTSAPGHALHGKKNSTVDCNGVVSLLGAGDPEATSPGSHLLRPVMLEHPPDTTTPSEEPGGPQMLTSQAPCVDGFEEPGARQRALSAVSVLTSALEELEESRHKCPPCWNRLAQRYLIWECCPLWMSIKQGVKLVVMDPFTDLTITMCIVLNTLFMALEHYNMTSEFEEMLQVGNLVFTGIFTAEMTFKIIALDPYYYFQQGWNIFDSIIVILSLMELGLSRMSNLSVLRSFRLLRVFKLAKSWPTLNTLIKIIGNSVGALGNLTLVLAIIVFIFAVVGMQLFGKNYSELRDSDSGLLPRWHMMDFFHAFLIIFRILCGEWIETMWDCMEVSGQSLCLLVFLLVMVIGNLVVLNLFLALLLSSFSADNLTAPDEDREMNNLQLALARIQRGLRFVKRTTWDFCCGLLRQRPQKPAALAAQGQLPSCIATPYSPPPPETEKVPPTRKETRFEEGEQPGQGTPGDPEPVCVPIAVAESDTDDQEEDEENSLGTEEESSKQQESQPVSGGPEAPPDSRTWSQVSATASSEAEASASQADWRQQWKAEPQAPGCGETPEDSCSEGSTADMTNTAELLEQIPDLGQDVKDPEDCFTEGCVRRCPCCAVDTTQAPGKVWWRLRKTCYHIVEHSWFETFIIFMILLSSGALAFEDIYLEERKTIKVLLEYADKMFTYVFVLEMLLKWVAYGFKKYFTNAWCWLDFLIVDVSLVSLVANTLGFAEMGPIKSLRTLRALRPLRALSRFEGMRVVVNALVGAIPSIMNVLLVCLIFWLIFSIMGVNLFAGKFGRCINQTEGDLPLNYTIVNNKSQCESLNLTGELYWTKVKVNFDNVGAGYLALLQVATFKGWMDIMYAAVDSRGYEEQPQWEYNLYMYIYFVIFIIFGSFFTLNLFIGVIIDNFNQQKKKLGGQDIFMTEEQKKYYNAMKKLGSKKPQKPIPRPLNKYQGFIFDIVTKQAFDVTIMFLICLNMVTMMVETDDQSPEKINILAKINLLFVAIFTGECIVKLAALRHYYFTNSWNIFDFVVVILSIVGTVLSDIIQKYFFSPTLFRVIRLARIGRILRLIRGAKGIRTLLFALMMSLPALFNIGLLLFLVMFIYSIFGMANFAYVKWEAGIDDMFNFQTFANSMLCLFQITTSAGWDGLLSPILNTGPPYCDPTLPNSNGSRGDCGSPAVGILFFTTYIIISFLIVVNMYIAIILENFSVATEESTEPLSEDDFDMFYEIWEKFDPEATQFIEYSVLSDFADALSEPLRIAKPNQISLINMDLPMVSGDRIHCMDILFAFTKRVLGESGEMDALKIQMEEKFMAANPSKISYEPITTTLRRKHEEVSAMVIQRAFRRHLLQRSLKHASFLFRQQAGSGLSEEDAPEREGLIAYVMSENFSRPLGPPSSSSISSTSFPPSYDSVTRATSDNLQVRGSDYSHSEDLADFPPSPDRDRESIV
Cytochrome P450 2C19, sequence (P33261 whole entry): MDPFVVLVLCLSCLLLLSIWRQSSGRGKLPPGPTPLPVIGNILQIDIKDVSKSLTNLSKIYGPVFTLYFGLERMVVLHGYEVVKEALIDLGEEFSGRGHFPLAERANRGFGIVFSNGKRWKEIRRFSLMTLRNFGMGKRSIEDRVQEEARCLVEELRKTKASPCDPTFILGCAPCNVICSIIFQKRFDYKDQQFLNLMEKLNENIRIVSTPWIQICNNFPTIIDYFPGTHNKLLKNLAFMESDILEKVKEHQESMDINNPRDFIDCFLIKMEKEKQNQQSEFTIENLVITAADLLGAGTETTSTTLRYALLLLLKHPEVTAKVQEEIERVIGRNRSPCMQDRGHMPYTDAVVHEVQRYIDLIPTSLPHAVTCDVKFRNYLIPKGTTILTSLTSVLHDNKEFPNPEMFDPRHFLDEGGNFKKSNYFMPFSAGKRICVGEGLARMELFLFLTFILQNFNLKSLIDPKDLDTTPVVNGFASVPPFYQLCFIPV

Structure (SMILES): C[C@H]1CCN1c1nc(N2CC[C@H](CCC(=O)O)C2)c2c(n1)C(F)(F)CC2
- half-life [1]: 5.82 h
- solubility kinetic (physchem): > 1000 µM
- fraction unbound (in vitro [2]): 0.025
- IC50 (HepG2): 0.196 µM
- Cmax [3]: 4.9 µg/mL
- AUC [4]: 44.4 µg·h/mL
- hepatocyte CLint at 2 h, 1 µM (in vitro [5]): < 0.96 µL/min/1e6 cells
- Drug metabolism [6]: Metabolite_Notdetected
- concentration at 24 h (in vivo [7]): 1140 ng/g
- fraction unbound (in vitro [8]): 0.089
- bioavailability [9]: 122%
- Cmax [10]: 10.1 µg/mL
- Drug metabolism [11]: Metabolite_Notdetected
- Tmax [12]: 2.33 h
- IC50 (Ketohexokinase): 0.0351 µM
- Drug metabolism [13]: Metabolite_Notdetected
- remaining at 4 h, 10 µM [14]: 95.8%
- IC50 [15]: > 30 µM
- remaining at 4 h, 10 µM [16]: 96.6%
- microsomal CLint at 2 h, 1 µM (in vitro [17]): 6.4 µL/min/mg
- Tmax [18]: 0.75 h
- IC50 (Cytochrome P450 1A2): > 10 µM
- concentration at 24 h (in vivo [19]): 1490 ng/g
- Drug metabolism [20]: Metabolite_Notdetected
- bioavailability [21]: 54.6%
- Kp at 24 h (in vivo [22]): 2.2
- MRT last at 24 h [23]: 8.5 h
- hepatocyte CLint at 2 h, 1 µM (in vitro [24]): < 0.96 µL/min/1e6 cells
- hepatocyte CLint at 2 h, 1 µM (in vitro [25]): < 0.96 µL/min/1e6 cells
- IC50 (Cytochrome P450 2C19): > 10 µM
- clearance [26]: 0.151 L/h/kg
- Papp A→B at 2 h, 10 µM (in vitro [27]): 36.4 nm/s
- MRT last at 24 h [28]: 4.61 h
- IC50 at 48 h (in vitro [29]): > 150 µM
- half-life [30]: 7.16 h
